According to ChEMBL document CHEMBL5108024, “New C-6 functionalized quinoline NorA inhibitors strongly synergize with ciprofloxacin against planktonic and biofilm growing resistant Staphylococcus aureus strains” (Eur J Med Chem, 2022):

System: Staphylococcus aureus
Test: Inhibition of EtBr efflux in ciprofloxacin-resistant Staphylococcus aureus 1199B overexpressing norA and harboring A116E grlA mutant assessed as reduction in fluorescence intensity at 50 uM measured for 5 mins by microplate reader analysis relative to control
Format: functional

**Q.** CCCOc1ccc(-c2cc(OCCN3CCCCC3)c3cc(-c4ccccc4)ccc3n2)cc1 was tested. Which inhibition did it give?
**A.** 80.6%

**Q.** Which inhibition does the source give for CCCOc1ccc(-c2cc(OCCN3CCCCC3)c3cc(Br)ccc3n2)cc1 here?
**A.** 71.6%

**Q.** With CCCOc1ccc(-c2cc(OCCN3CCCCCC3)c3cc(OC(F)F)ccc3n2)cc1 as the compound, how does the inhibition read?
**A.** 70.7%

**Q.** Which inhibition does the source give for CCCOc1ccc(-c2cc(OCCN(CC)CC)c3cc(OCCC)ccc3n2)cc1 here?
**A.** 67.1%

**Q.** How did the inhibition turn out when CCCOc1ccc(-c2cc(OCCN(CC)CC)c3cc(OC(F)F)ccc3n2)cc1 was run?
**A.** 71.9%

**Q.** CCCOc1ccc(-c2cc(OCCN3CCCCC3)c3cc(C#N)ccc3n2)cc1 was tested. Which inhibition did it give?
**A.** 77.8%

**Q.** CCCOc1ccc(-c2cc(OCCN3CCCCC3)c3cc(NCc4ccccc4)ccc3n2)cc1 was tested. Which inhibition did it give?
**A.** 40.6%

**Q.** How did the inhibition turn out when CCCOc1ccc(-c2cc(OCCN(CC)CC)c3cc(SC)ccc3n2)cc1 was run?
**A.** 53.3%

**Q.** For CCCOc1ccc(-c2cc(OCCN(CC)CC)c3cc(Br)ccc3n2)cc1, which inhibition is on record?
**A.** 63.4%

**Q.** How did the inhibition turn out when CCCOc1ccc(-c2cc(OCCN(CC)CC)c3cc(C#N)ccc3n2)cc1 was run?
**A.** 77.8%

**Q.** How did the inhibition turn out when CCCOc1ccc(-c2cc(OCCN3CCCCC3)c3cc(OC(C)C)ccc3n2)cc1 was run?
**A.** 65.3%

**Q.** With CCCOc1ccc(-c2cc(OCCN(CC)CC)c3cc(C(F)(F)F)ccc3n2)cc1 as the compound, how does the inhibition read?
**A.** 73.5%

**Q.** How did the inhibition turn out when CCCOc1ccc(-c2cc(OCCN(CC)CC)c3cc(OC(C)C)ccc3n2)cc1 was run?
**A.** 43.7%

**Q.** How did the inhibition turn out when CCCOc1ccc(-c2cc(OCCN3CCCCCC3)c3cc(OC(C)C)ccc3n2)cc1 was run?
**A.** 75.3%

**Q.** With CCCOc1ccc(-c2cc(OCCN3CCCCCC3)c3cc(Br)ccc3n2)cc1 as the compound, how does the inhibition read?
**A.** 76.4%

System: Staphylococcus aureus
Test: Inhibition of EtBr efflux in ciprofloxacin-resistant Staphylococcus aureus 1199B overexpressing norA and harboring A116E grlA mutant assessed as reduction in fluorescence intensity at 10 uM measured for 5 mins by microplate reader analysis relative to control
Format: functional

**Q.** Which inhibition does the source give for CCCOc1ccc(-c2cc(OCCN3CCCCC3)c3cc(-c4ccccc4)ccc3n2)cc1 here?
**A.** 41.9%
